Reference: US8541427B2, “Phenyl-substituted 2-imino-3-methyl pyrrolo pyrimidinone compounds as BACE-1 inhibitors, compositions, and their use” (Merck, Sharp & Dohme, Corp., priority 2008, dated 2013)
Where two headings read alike, the source gives them in different places.

Tests used:
[1] = target: CYP2D6 (Homo sapiens (Human), UniProt P10635); experiment: CYP Inhibition Assay, CYP2D6; format: in vitro ADME; conditions: human liver microsomes
[2] = target: CYP2C9 (Homo sapiens (Human), UniProt P11712); experiment: CYP Inhibition Assay, CYP2C9; format: in vitro ADME; conditions: human liver microsomes;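 note: probe substrate held close to its Km, with metabolite formation quantified by LC-MS/MS against a calibration curve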
Sequence of CYP2C9 (P11712 whole entry): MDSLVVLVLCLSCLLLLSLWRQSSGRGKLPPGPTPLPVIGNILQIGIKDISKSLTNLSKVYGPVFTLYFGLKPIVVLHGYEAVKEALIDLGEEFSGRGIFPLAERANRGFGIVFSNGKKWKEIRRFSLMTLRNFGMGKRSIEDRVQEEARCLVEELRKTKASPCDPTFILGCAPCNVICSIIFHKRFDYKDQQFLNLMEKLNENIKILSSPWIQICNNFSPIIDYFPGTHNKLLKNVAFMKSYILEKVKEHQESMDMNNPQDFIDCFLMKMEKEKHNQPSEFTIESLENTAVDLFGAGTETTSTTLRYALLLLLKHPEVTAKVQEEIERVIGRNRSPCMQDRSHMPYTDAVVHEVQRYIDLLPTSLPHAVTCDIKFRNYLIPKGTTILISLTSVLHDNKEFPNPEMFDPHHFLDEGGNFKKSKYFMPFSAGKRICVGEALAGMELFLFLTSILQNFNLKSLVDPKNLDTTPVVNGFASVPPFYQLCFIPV

[3] = target: CYP3A4 (Homo sapiens (Human), UniProt P08684); experiment: CYP Inhibition Assay, CYP3A4; format: in vitro ADME; conditions: human liver microsomes;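 note: CYP probe substrate held near its Km, inhibition judged from metabolite formation quantified by LC-MS/MS against a standard curve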
Sequence of CYP3A4 (P08684 whole entry, the tested form may be a part): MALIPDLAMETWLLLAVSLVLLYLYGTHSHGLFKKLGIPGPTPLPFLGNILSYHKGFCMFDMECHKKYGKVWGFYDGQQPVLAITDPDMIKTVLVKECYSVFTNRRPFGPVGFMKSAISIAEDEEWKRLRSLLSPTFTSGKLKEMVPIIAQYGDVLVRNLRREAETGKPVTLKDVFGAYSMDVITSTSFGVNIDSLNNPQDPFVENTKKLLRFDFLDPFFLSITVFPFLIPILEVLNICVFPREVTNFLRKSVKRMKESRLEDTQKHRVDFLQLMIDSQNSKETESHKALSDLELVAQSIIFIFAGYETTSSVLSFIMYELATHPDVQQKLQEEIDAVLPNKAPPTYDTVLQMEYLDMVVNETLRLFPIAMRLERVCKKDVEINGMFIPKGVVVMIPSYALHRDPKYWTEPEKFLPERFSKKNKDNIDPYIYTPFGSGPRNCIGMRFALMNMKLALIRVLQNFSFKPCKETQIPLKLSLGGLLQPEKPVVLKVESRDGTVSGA

[4] = target: soluble human BACE1 catalytic domain (Homo sapiens (Human), UniProt P56817); experiment: BACE1 HTRF FRET Assay; format: biochemical; conditions: Ki calculated from IC50 with Cheng-Prusoff equation;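 note: cleavage of a quenched APP Swedish mutant peptide (QSY7 quencher, Europium donor) measured as rise in 620 nm fluorescence after 1.5 h at 30 °C, inhibition suppresses signal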
Sequence of soluble human BACE1 catalytic domain (P56817 75-416): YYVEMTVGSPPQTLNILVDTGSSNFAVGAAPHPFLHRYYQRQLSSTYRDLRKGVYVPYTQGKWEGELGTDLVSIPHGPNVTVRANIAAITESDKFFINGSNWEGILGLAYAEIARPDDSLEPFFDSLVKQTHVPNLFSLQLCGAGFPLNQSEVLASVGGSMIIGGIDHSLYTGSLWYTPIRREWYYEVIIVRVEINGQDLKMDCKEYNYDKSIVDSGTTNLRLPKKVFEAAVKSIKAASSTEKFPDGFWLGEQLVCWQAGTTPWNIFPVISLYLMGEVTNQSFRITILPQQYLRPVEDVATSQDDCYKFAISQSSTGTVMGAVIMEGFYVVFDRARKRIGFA

[5] = target: BACE1 (Aβ40 in HEK293-APPswe/lon cells) (Homo sapiens (Human), UniProt P56817); experiment: BACE Inhibitor Whole Cell IC50 Determination Using HEK293-APPswe/lon Cells (Aβ40); format: cell-based; conditions: 4 hours
Sequence of BACE1 (Aβ40 in HEK293-APPswe/lon cells) (P56817 46-501): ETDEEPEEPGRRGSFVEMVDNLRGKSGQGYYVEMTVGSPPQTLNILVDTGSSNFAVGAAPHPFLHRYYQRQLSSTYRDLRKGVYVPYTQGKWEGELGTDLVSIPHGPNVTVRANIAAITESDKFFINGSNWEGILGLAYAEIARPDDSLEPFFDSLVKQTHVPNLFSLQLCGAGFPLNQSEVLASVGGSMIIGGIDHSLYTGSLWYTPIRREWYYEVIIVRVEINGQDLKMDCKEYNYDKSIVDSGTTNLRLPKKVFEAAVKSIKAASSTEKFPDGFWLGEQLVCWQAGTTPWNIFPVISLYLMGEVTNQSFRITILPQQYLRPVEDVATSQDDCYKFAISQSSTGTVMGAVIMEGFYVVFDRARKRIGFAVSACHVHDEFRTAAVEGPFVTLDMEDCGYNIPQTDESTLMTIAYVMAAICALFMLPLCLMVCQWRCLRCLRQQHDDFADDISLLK

[6] = target: human liver Cathepsin D (Homo sapiens (Human), UniProt P07339); experiment: Human Cathepsin D FRET Assay; format: biochemical; conditions: selectivity with respect to Cathepsin D vs BACE1
Sequence of human liver Cathepsin D (P07339 65-412): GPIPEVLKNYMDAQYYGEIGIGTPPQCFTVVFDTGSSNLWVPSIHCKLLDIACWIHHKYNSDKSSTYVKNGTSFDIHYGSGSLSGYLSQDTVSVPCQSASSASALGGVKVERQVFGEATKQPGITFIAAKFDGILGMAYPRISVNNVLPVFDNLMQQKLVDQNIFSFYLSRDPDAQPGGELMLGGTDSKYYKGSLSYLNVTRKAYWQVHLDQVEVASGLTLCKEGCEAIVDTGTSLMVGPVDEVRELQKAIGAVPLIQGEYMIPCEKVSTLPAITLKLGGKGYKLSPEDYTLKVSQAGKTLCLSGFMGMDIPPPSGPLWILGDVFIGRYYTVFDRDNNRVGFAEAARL
Sequence of human liver Cathepsin D (P07339 169-412): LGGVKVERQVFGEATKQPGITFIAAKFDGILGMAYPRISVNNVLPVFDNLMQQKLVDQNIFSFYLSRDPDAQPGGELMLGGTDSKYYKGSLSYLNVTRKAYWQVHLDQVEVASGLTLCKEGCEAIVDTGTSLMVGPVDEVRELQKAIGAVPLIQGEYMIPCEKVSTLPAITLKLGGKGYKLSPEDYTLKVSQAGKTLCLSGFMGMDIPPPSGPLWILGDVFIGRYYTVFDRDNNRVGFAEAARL

[7] = target: hERG (Homo sapiens (Human), UniProt Q12809); experiment: hERG screening, IonWorks Quattro (hERG L929 cells); format: cell-based; conditions: L929 cells expressing hERG; for inhibition at 5 min, 1 uM: read-out: HERG Ionworks % Inhib 1 uM; for inhibition at 5 min, 10 uM: read-out: HERG Ionworks % Inhib 10 uM
Sequence of hERG (Q12809 whole entry): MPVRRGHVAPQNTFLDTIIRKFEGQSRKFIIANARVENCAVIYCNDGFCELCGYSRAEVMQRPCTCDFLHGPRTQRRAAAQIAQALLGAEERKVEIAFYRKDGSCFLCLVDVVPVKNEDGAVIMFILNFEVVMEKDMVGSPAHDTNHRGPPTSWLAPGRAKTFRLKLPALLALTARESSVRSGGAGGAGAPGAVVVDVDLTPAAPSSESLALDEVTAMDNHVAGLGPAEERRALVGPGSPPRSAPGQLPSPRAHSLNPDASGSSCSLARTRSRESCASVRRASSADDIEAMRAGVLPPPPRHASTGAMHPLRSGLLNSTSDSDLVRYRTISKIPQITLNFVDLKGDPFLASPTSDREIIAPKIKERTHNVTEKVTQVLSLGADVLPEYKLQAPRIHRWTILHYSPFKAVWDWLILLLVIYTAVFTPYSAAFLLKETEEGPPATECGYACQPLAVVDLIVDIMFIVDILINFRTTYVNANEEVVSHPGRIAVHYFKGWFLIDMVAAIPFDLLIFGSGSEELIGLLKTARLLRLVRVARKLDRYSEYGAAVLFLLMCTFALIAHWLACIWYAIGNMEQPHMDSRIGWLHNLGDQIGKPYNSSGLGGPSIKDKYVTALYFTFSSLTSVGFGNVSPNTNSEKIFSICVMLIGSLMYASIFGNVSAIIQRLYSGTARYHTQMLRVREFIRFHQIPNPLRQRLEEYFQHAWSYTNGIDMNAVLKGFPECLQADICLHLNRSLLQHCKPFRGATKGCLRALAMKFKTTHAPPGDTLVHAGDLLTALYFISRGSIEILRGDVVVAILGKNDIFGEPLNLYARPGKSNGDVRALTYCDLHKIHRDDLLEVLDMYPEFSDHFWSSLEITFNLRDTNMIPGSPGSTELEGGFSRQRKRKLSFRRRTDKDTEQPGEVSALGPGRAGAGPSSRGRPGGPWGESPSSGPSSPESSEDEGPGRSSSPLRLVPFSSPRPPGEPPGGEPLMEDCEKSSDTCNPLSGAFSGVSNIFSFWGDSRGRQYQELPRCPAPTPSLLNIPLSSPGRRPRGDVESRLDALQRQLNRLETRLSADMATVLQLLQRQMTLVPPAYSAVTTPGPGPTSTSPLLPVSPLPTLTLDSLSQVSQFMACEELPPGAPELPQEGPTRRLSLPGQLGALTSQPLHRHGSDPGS

[8] = 30 min pre-incubation with NADPH, read-out: CYP 2D6 IC50 pre
[9] = co-incubation, read-out: CYP 2D6 IC50 co
[10] = 30 min pre-incubation with NADPH, read-out: CYP 2C9 IC50 pre
[11] = co-incubation, read-out: CYP 2C9 IC50 co
[12] = 30 min pre-incubation with NADPH, read-out: CYP 3A4 IC50 pre
[13] = co-incubation, read-out: CYP 3A4 IC50 co

Sequence of CYP2D6 (P10635 whole entry): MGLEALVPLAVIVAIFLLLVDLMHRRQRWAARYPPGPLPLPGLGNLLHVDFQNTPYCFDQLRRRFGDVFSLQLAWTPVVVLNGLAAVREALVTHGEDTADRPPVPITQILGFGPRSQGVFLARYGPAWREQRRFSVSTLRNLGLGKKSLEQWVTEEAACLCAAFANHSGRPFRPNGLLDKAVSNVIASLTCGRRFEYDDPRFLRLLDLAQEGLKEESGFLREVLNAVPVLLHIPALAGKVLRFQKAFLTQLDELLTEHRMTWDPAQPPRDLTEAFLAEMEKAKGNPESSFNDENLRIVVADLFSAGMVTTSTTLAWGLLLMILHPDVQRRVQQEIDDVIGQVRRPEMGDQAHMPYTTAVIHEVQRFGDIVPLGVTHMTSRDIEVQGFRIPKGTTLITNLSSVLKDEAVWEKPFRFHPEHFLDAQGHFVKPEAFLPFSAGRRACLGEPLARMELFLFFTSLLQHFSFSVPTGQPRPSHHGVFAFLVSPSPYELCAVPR

CCOc1nc(N2C[C@H]3C(=O)N(C)C(N)=N[C@@]3(c3ccccc3)C2)nc(C)c1F (racemic) [4 racemic]
IC50 [1, 8]: > 30 µM
IC50 [1, 9]: ~30 µM
IC50 [2, 10]: > 30 µM
IC50 [2, 11]: > 30 µM
IC50 [3, 12]: > 30 µM
IC50 [3, 13]: > 30 µM

CCc1nc(N2C[C@H]3C(=O)N(C)C(N)=N[C@@]3(c3ccccc3)C2)nc(C)c1F (racemic) [5 racemic]
Ki [4]: 0.061 µM
IC50 [1, 8]: > 30 µM
IC50 [1, 9]: ~30 µM
IC50 [2, 10]: > 30 µM
IC50 [2, 11]: > 30 µM
IC50 [5]: 0.217 µM
IC50 [3, 12]: > 30 µM
IC50 [3, 13]: > 30 µM

CCc1nc(N2C[C@H]3C(=O)N(C)C(=N)N[C@@]3(c3ccccc3)C2)nc(OC)c1F (racemic) [6 racemic]
Ki [4]: 0.016 µM
CathD Selectivity [6]: 318
IC50 [1, 8]: ~30 µM
IC50 [1, 9]: 24.9 µM
IC50 [2, 10]: > 30 µM
IC50 [2, 11]: > 30 µM
IC50 [5]: 0.144 µM
IC50 [3, 12]: > 30 µM
IC50 [3, 13]: > 30 µM

Cc1nc(N2C[C@H]3C(=O)N(C)C(N)=N[C@@]3(c3ccccc3)C2)nc(C2CC2)c1Cl (racemic) [7 racemic]
Ki [4]: 0.094 µM
IC50 [5]: 0.664 µM

Cc1nc(N2C[C@H]3C(=O)N(C)C(N)=N[C@@]3(c3ccccc3)C2)nc(C)c1F (racemic) [23 racemic]
Ki [4]: 0.154 µM
IC50 [1, 8]: > 30 µM
IC50 [1, 9]: > 30 µM
IC50 [2, 10]: > 30 µM
IC50 [2, 11]: > 30 µM
IC50 [5]: 0.292 µM
IC50 [3, 12]: > 30 µM
IC50 [3, 13]: > 30 µM

CCOc1nc(N2C[C@H]3C(=O)N(C)C(=N)N[C@@]3(c3ccccc3)C2)nc(OC)c1F (racemic) [24 racemic]
Ki [4]: 0.137 µM
CathD Selectivity [6]: 129
IC50 [1, 8]: ~30 µM
IC50 [1, 9]: 22.6 µM
IC50 [2, 10]: > 30 µM
IC50 [2, 11]: > 30 µM
IC50 [3, 12]: > 30 µM
IC50 [3, 13]: > 30 µM

Cc1nc(N2C[C@H]3C(=O)N(C)C(N)=N[C@@]3(c3ccccc3)C2)nc(C2CC2)c1F (racemic) [25 racemic]
Ki [4]: 0.044 µM
IC50 [1, 8]: > 20 µM
IC50 [1, 9]: > 20 µM
IC50 [2, 10]: > 20 µM
IC50 [2, 11]: > 20 µM
IC50 [5]: 0.349 µM
IC50 [3, 12]: > 20 µM
IC50 [3, 13]: > 20 µM

CCc1nc(N2C[C@H]3C(=O)N(C)C(N)=N[C@@]3(c3ccccc3)C2)nc(C2CC2)c1Cl (racemic) [26 racemic]
Ki [4]: 0.18 µM
IC50 [1, 8]: > 20 µM
IC50 [1, 9]: > 20 µM
IC50 [2, 10]: > 20 µM
IC50 [2, 11]: > 20 µM
IC50 [3, 12]: > 20 µM
IC50 [3, 13]: > 20 µM

COc1nc(N2C[C@H]3C(=O)N(C)C(=N)N[C@@]3(c3ccc(F)c(Cl)c3F)C2)nc(C)c1F (racemic) [39 racemic]
Ki [4]: 0.0092 µM
CathD Selectivity [6]: 221
IC50 [1, 8]: > 20 µM
IC50 [1, 9]: > 20 µM
IC50 [2, 10]: > 20 µM
IC50 [2, 11]: > 20 µM
IC50 [5]: 0.04 µM
inhibition at 5 min, 1 uM [7]: 3%
inhibition at 5 min, 10 uM [7]: 61%
IC50 [3, 12]: > 20 µM
IC50 [3, 13]: > 20 µM

COc1nc(N2C[C@H]3C(=O)N(C)C(=N)N[C@@]3(c3cc(F)ccc3Cl)C2)nc(C)c1F [Example 2]
CathD Selectivity [6]: 162
IC50 [1, 8]: > 20 µM
IC50 [1, 9]: > 20 µM
IC50 [2, 10]: > 20 µM
IC50 [2, 11]: > 20 µM
inhibition at 5 min, 1 uM [7]: 8%
inhibition at 5 min, 10 uM [7]: 50%
IC50 [3, 12]: > 20 µM
IC50 [3, 13]: > 20 µM

COc1nc(N2C[C@H]3C(=O)N(C)C(=N)N[C@@]3(c3cc(Cl)ccc3F)C2)nc(C)c1F [Example 3]
IC50 [1, 8]: > 20 µM
IC50 [1, 9]: > 20 µM
IC50 [2, 10]: 12.7 µM
IC50 [2, 11]: 8.5 µM
inhibition at 5 min, 1 uM [7]: 22%
inhibition at 5 min, 10 uM [7]: 89%
IC50 [3, 12]: > 20 µM
IC50 [3, 13]: > 20 µM

COc1nc(N2C[C@H]3C(=O)N(C)C(N)=N[C@@]3(c3cc(F)c(F)cc3F)C2)nc(C)c1F [Example 8]
IC50 [1, 8]: > 20 µM
IC50 [1, 9]: > 20 µM
IC50 [2, 10]: > 20 µM
IC50 [2, 11]: > 20 µM
inhibition at 5 min, 1 uM [7]: 21%
inhibition at 5 min, 10 uM [7]: 89%
IC50 [3, 12]: > 20 µM
IC50 [3, 13]: > 20 µM

COc1nc(N2C[C@H]3C(=O)N(C)C(=N)N[C@@]3(c3cc(F)ccc3F)C2)nc(OC)c1F [Example 9]
Ki [4]: 0.0056 µM
CathD Selectivity [6]: 386
IC50 [1, 8]: > 30 µM
IC50 [1, 9]: > 30 µM
IC50 [2, 10]: ~30 µM
IC50 [2, 11]: ~30 µM
IC50 [5]: 0.066 µM
inhibition at 5 min, 1 uM [7]: 12%
inhibition at 5 min, 10 uM [7]: 71%
IC50 [3, 12]: 18.6 µM
IC50 [3, 13]: > 30 µM

COc1nc(N2C[C@H]3C(=O)N(C)C(=N)N[C@@]3(c3ccc(F)cc3F)C2)nc(OC)c1F [Example 10]
Ki [4]: 0.0018 µM
CathD Selectivity [6]: 583
IC50 [1, 8]: > 30 µM
IC50 [1, 9]: ~30 µM
IC50 [2, 10]: > 30 µM
IC50 [2, 11]: > 30 µM
IC50 [5]: 0.0075 µM
inhibition at 5 min, 1 uM [7]: 7%
inhibition at 5 min, 10 uM [7]: 74%
IC50 [3, 12]: > 30 µM
IC50 [3, 13]: > 30 µM

COc1nc(N2C[C@H]3C(=O)N(C)C(=N)N[C@@]3(c3c(F)cc(F)cc3F)C2)nc(C)c1F [Example 13]
Ki [4]: 0.015 µM
CathD Selectivity [6]: 773
IC50 [1, 8]: > 20 µM
IC50 [1, 9]: > 20 µM
IC50 [2, 10]: > 20 µM
IC50 [2, 11]: > 20 µM
IC50 [5]: 0.021 µM
IC50 [3, 12]: > 20 µM
IC50 [3, 13]: > 20 µM

Cc1nc(N2C[C@H]3C(=O)N(C)C(=N)N[C@@]3(c3cccc(C#N)c3)C2)nc(C2CC2)c1F [Example 14]
Ki [4]: 0.043 µM
IC50 [1, 8]: > 20 µM
IC50 [1, 9]: > 20 µM
IC50 [2, 10]: > 20 µM
IC50 [2, 11]: > 20 µM
IC50 [5]: 0.213 µM
inhibition at 5 min, 1 uM [7]: 6%
inhibition at 5 min, 10 uM [7]: 59%
IC50 [3, 12]: > 20 µM
IC50 [3, 13]: > 20 µM

COc1nc(N2C[C@H]3C(=O)N(C)C(=N)N[C@@]3(c3ccccc3F)C2)nc(C)c1Cl [Example 18]
Ki [4]: 0.0093 µM
CathD Selectivity [6]: 228
IC50 [5]: 0.032 µM

COc1nc(N2C[C@H]3C(=O)N(C)C(=N)N[C@@]3(c3ccc(F)cc3F)C2)nc(C2CC2)c1Cl [Example 19]
Ki [4]: 0.0068 µM
CathD Selectivity [6]: 236
IC50 [1, 8]: > 20 µM
IC50 [1, 9]: > 20 µM
IC50 [2, 10]: > 20 µM
IC50 [2, 11]: > 20 µM
IC50 [5]: 0.117 µM
inhibition at 5 min, 1 uM [7]: 3%
inhibition at 5 min, 10 uM [7]: 20%
IC50 [3, 12]: > 20 µM
IC50 [3, 13]: > 20 µM

COc1nc(N2C[C@H]3C(=O)N(C)C(=N)N[C@@]3(c3cccc(Cl)c3)C2)nc(C)c1F [Example 33]
Ki [4]: 0.039 µM
CathD Selectivity [6]: 43
IC50 [5]: 0.176 µM

Cc1nc(N2C[C@H]3C(=O)N(C)C(=N)N[C@@]3(c3cc(F)ccc3F)C2)nc(C2CC2)c1F [Example 37]
Ki [4]: 0.026 µM
IC50 [1, 8]: > 20 µM
IC50 [1, 9]: > 20 µM
IC50 [2, 10]: > 20 µM
IC50 [2, 11]: > 20 µM
IC50 [5]: 0.235 µM
inhibition at 5 min, 1 uM [7]: 12%
inhibition at 5 min, 10 uM [7]: 73%
IC50 [3, 12]: > 20 µM
IC50 [3, 13]: > 20 µM

COc1nc(N2C[C@H]3C(=O)N(C)C(N)=N[C@@]3(c3c(F)ccc(F)c3F)C2)nc(C)c1F [Example 40]
IC50 [1, 8]: > 20 µM
IC50 [1, 9]: > 20 µM
IC50 [2, 10]: > 20 µM
IC50 [2, 11]: > 20 µM
inhibition at 5 min, 1 uM [7]: 15%
inhibition at 5 min, 10 uM [7]: 81%
IC50 [3, 12]: > 20 µM
IC50 [3, 13]: > 20 µM

COc1nc(N2C[C@H]3C(=O)N(C)C(=N)N[C@@]3(c3ccc(F)cc3F)C2)nc(C(F)(F)F)c1F [Example 41]
Ki [4]: 0.032 µM
CathD Selectivity [6]: 346
IC50 [5]: 0.067 µM
inhibition at 5 min, 1 uM [7]: 1%
inhibition at 5 min, 10 uM [7]: 77%

COc1nc(N2C[C@H]3C(=O)N(C)C(=N)N[C@@]3(c3ccc(F)cc3F)C2)nc(C(C)(F)F)c1F [Example 42]
Ki [4]: 0.011 µM
